Assay in all cases: NCI-60 cell line screen, 48 h
The test system of test [1] is A549.
Test [2] has as its system ACHN.
Test [3] has as its system CAKI-1.
Test [4] has as its system HCC 2998.
In test [5] the test system is K562.
The test system of test [6] is KM12.
Test [7] deals with M14.
Test [8] has as its system MCF7.
The subject of test [9] is MDA-MB-231.
The subject of test [10] is MDA-MB-435.
Test [11] deals with MDA-N.
The test system of test [12] is Malme-3M.
Test [13] has as its system NCI-H23.
The subject of test [14] is OVCAR-4.
The subject of test [15] is SK-MEL-28.
The subject of test [16] is SK-OV-3.
For test [17], the system named is SN12C.
The test system of test [18] is SNB-75.
Test [19] concerns SR.
Test [20] relates to U-251.

Here are results for nine compounds from ChEMBL document CHEMBL1201862, “PubChem BioAssay data set” (2004).

The structures appear in SMILES notation.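 48-hour exposure; five concentrations; linearly interpolated endpoints. Here, GI50 denotes the concentration required for 50% inhibition of growth.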 Active and inactive are the calls of the source. No stated cut-off is given here; in the data, active = GI50 up to about 1.1 µM and inactive = higher.

Regarding `O=C(NCCCNCCCNC(=O)c1cc(-c2ccccc2)nc2ccccc12)c1cc(-c2ccccc2)nc2ccccc12`, the GI50 in test [1] is 1.83 µM (inactive); in test [2], 2.12 µM (inactive); in [3] it was 1.9 µM (inactive); in test [4], 0.834 µM (active); in [5] it was 1.79 µM (inactive); in test [6], 1.99 µM (inactive). Also, the GI50 in test [7] is 1.79 µM (inactive); in test [8] it was 1.66 µM (inactive); in test [9], 2.01 µM (inactive); in test [10], 1.64 µM (inactive); in test [11], 1.89 µM (inactive); in test [12] it was 2.13 µM (inactive). The GI50 is 1.86 µM (inactive) in test [13]; 1.74 µM (inactive) in [14]; 1.77 µM (inactive) in test [15]; 2.21 µM (inactive) in test [16]; 1.84 µM (inactive) in test [17]; 1.49 µM (inactive) in test [18]. Also, the GI50 is 1.67 µM (inactive) in test [19] and 1.69 µM (inactive) in test [20].

In the case of `COCOC1/C=C/CCCCC2=C(C)C=C(C1)O2` (stereo not given), the GI50 in test [1], in test [2], in test [3], in test [4], in test [5] and in test [6] was > 100 µM (inactive) each time. Further, the GI50 in test [7], in [8], in test [9], in [10], in test [11] and in test [12] was > 100 µM (inactive) in each case. The GI50 in test [13], in test [14], in test [15], in test [16], in test [17] and in [18] was > 100 µM (inactive) each time. Also, the GI50 in test [19] and in test [20] was > 100 µM (inactive) in each case.

Take `C=C1C(=O)O[C@H]2C[C@@H]1[C@@H](O)[C@H](O)[C@@H](C)CCCC(C)=CCC[C@@]2(C)O`: the GI50 was 35.1 µM (inactive) in test [1]; 14.6 µM (inactive) in test [2]; 5.06 µM (inactive) in test [3]; 25.3 µM (inactive) in test [4]; 5.55 µM (inactive) in test [5]; 30.9 µM (inactive) in [6]. For the same compound, the GI50 is 13.6 µM (inactive) in [7]; 10.1 µM (inactive) in test [8]; 28 µM (inactive) in test [9]; 17.7 µM (inactive) in test [10]; 9.86 µM (inactive) in [11]; 13 µM (inactive) in [12]. In addition, the GI50 in test [13] was 18.1 µM (inactive); in [14] it was 21.9 µM (inactive); in test [15] it was 25.6 µM (inactive); in test [16], 62.5 µM (inactive); in [17] it was 17 µM (inactive); in test [18] it was 45.5 µM (inactive). The GI50 in [19] is 39.7 µM (inactive); in [20], 24.7 µM (inactive).

Consider `Cc1ccc(S(=O)(=O)N2CCNCCN(S(=O)(=O)c3ccc(C)cc3)CCN(S(=O)(=O)c3ccc(C)cc3)CC2)cc1`, for which the GI50 in [1], in test [2], in [3], in test [4], in [5] and in test [6] was > 100 µM (inactive) each time. Besides, the GI50 in test [7], in test [8], in test [9], in test [10], in [11] and in [12] was > 100 µM (inactive) in each case. Further, the GI50 in [13] was > 100 µM (inactive); in test [14] it was > 100 µM (inactive); in [15], > 100 µM (inactive); in test [16], > 100 µM (inactive); in test [17], > 100 µM (inactive); in test [18], 54.3 µM (inactive). The GI50 in test [19] and in test [20] was > 100 µM (inactive) each time.

For the compound `O=P1(C(O)/C=C/c2ccccc2)N(Cc2ccccc2)[C@H](c2ccccc2)[C@@H](c2ccccc2)N1Cc1ccccc1` (stereo not given in full), the GI50 in [1] was 6.92 µM (inactive); in test [2], 27.4 µM (inactive); in test [3], 17.1 µM (inactive); in test [4], 19.6 µM (inactive); in test [5] it was 7.85 µM (inactive); in test [6], 17 µM (inactive). Besides, the GI50 in test [7] was 14.4 µM (inactive); in [8], 12 µM (inactive); in test [9] it was 17.3 µM (inactive); in test [10], 19.3 µM (inactive); in test [11] it was 16.5 µM (inactive); in test [12] it was 27.8 µM (inactive). Also, the GI50 in test [13] is 13.1 µM (inactive); in test [14], 13 µM (inactive); in [15] it was 35.2 µM (inactive); in test [16], 22.5 µM (inactive); in test [17], 13.6 µM (inactive); in [18] it was 19 µM (inactive). The GI50 in test [19] was 4.75 µM (inactive); in test [20], 19.9 µM (inactive).

On to `COc1ccc(C(c2ccc(OC)cc2)N2C(=O)CCC2C(=O)O)cc1` (stereo not given), for which the GI50 in test [1], in [2], in [3], in [4], in test [5] and in [6] was > 100 µM (inactive) each time. Also, the GI50 in test [7], in test [8], in test [9], in test [10], in test [11] and in [12] was > 100 µM (inactive) throughout. Further, the GI50 in test [13], in [14], in test [15], in test [16], in test [17] and in test [18] was > 100 µM (inactive) in each case. Moreover, the GI50 in test [19] and in [20] was > 100 µM (inactive) each time.

Consider `CCOC(=O)C1(C(=O)OCC)C[C@H]2CON=C2[C@@H]1c1ccc(C(F)(F)F)cc1`, for which the GI50 was 75 µM (inactive) in [1]; 19.1 µM (inactive) in [2]; 30.9 µM (inactive) in test [3]; 31.9 µM (inactive) in test [4]; 35.2 µM (inactive) in test [5]; 82.6 µM (inactive) in test [6]. For the same compound, the GI50 in [7] is 55.1 µM (inactive); in test [8], 35.9 µM (inactive); in test [9] it was > 100 µM (inactive); in test [10] it was 38.6 µM (inactive); in [11], 45.7 µM (inactive); in [12], > 100 µM (inactive). The GI50 is 58.7 µM (inactive) in [13]; 17.7 µM (inactive) in [14]; > 100 µM (inactive) in test [15]; 57.8 µM (inactive) in [16]; 94.8 µM (inactive) in test [17]; 62.5 µM (inactive) in test [18]. Also, the figures for the GI50 in [19] and in test [20] were 35.4 µM (inactive) and 64.7 µM (inactive), respectively.

Turning to `Fc1cccc(C2SCc3nc4cc5ccccc5cc4n32)c1` (stereo not given), the GI50 in test [1] was > 100 µM (inactive); in test [2], > 100 µM (inactive); in test [3], 68.9 µM (inactive); in test [4], > 100 µM (inactive); in test [5] it was > 100 µM (inactive); in [6] it was > 100 µM (inactive). Also, the GI50 in test [7], in test [8], in [9], in test [10], in test [11] and in test [12] was > 100 µM (inactive) throughout. The GI50 in [13] is > 100 µM (inactive); in test [14], 90.8 µM (inactive); in test [15], > 100 µM (inactive); in test [16], > 100 µM (inactive); in [17], 53.3 µM (inactive); in test [18], 93.1 µM (inactive). Also, the GI50 in test [19] and in test [20] was > 100 µM (inactive) in each case.

With `CCSc1nc(COC(=O)NC)c(COC(=O)NC)n1C`, the GI50 in test [1] was > 97.5 µM (inactive); in test [2] it was 16.6 µM (inactive); in test [3] it was 49.5 µM (inactive); in test [4] it was > 85.7 µM (inactive); in test [5], > 68.1 µM (inactive); in test [6], > 100 µM (inactive). The GI50 in test [7] is > 64.1 µM (inactive); in [8], > 70.5 µM (inactive); in test [9], > 100 µM (inactive); in [10] it was > 100 µM (inactive); in test [11] it was > 100 µM (inactive); in [12] it was > 100 µM (inactive). Also, the GI50 in test [13] is 99.5 µM (inactive); in [14], > 75.7 µM (inactive); in [15], > 100 µM (inactive); in [16], 50.7 µM (inactive); in [17] it was > 100 µM (inactive); in test [18] it was > 100 µM (inactive). The GI50 in test [19] is 51.3 µM (inactive); in [20], > 84.9 µM (inactive).
